Where two headings read alike, the source gives them in different places.
Legend:
[1] = system: NF-κB pathway (SEAP) in THP1-Dual cells; assay: THP-1 Dual cell SEAP assay (L18-MDP stimulated); format: cell-based; conditions: Homo sapiens, THP1-Dual, read-out: NF-κB THP1 IC50 bin
How it was run: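 IC50 values derive from non-linear regression of % inhibition, calculated against DMSO/L18-MDP-treated wells after media-only subtraction. NF-κB SEAP activity was read at OD 620-655 nm (QUANTI-Blue, 2 h, 37 °C) from supernatants of THP1-Dual cells. Cells had been compound-treated 30 min before overnight (20-24 h) stimulation with 10 ng/mL final L18-MDP.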

[2] = biological target: T1, GST-RIPK2 fusion protein (human RIPK2, amino acids 1-310) (Homo sapiens, UniProt O43353); assay: RIPK2 binding competition assay (TR-FRET, Tracer 199 displacement)
T1 construct: made in house; host or cells: baculovirus infected Sf9 cells
T1 sequence (O43353 1-310): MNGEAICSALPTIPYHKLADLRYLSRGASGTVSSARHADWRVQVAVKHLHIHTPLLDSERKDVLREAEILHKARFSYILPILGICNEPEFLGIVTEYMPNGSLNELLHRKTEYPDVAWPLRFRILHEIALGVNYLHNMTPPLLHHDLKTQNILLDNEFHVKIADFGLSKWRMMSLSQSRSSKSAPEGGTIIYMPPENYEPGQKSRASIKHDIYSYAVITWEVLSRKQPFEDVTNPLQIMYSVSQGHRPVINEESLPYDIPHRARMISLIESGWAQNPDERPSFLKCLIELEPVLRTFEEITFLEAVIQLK
How it was run: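 IC50 derived from the TR-FRET emission ratio (665/620 nm, 337 nm excitation), normalized with no-inhibitor and no-enzyme controls. Incubation 45 min at 22 °C, pH 7.5 Tris buffer, with final 10 nM tracer, 1 nM Sf9-expressed GST-RIPK2 fragment (aa 1-310) and 0.5 nM Tb-labelled anti-GST.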

[3] = biological target: T2, binding of His-XIAP(BIR2)-avi fusion protein to GST-RIPK2 fusion protein (RIPK2/XIAP) (Homo sapiens, UniProt O43353); assay: RIPK2-XIAP binding competition PPI assay (TR-FRET); conditions: RIPK2/XIAP binding competition PPI assay; for Emax: Amax, read-out: PPI Amax bin
T2 construct: made in house; host or cells: baculovirus infected Sf9 cells
T2 sequence (O43353 1-310 limits assumed): as the sequence (O43353 1-310) above
How it was run: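 Compounds (in DMSO, 100-fold stock) incubated 120 min at 23 °C with 1 nM GST-RIPK2 (aa 1-310) and 25 nM His-XIAP(BIR2 aa 152-231)-avi, plus anti-His-XL665 and anti-GST-Tb, in pH 7.5 Tris buffer. Read-out: 665/520 nm emission ratio. Normalized to no-inhibitor (0%) and 50 nM GSK583 (−100%); Amax binned A–D.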

[4] = 10 nM Tracer 199, 1 nM GST-RIPK2, read-out: RIPK2 IC50
[5] = RIPK2 IC50 (nM), 10 nM Tracer 199, 1 nM GST-RIPK2

In the case of `C[C@@H](O)COc1cc2ncc(-c3cc(F)c(N)nc3F)n2cc1S(=O)(=O)C(C)(C)C` [Example 171, (R)-1-((3-(6-amino-2,5-difluoropyridin-3-yl)-6-(tert-butylsulfonyl)imidazo[1,2-a]pyridin-7-yl)oxy)propan-2-ol], the IC50 [1] is reported as 50 to 250 nM, the IC50 [2, 4] is reported as 2.5 to 20 nM and the Emax [3] is reported as > 80%. For the same molecule, the IC50 ([3]; read-out: PPI IC50 bin) was 2.5 to 20 nM.

Molecule `C[C@H](CO)Oc1cc2ncc(-c3cc(F)c(N)nc3F)n2cc1S(=O)(=O)C(C)(C)C` [Example 172, (R)-2-((3-(6-amino-2,5-difluoropyridin-3-yl)-6-(tert-butylsulfonyl)imidazo[1,2-a]pyridin-7-yl)oxy)propan-1-ol] has an IC50 [1] of 250 to 1000 nM, an IC50 [2, 5] of 2.5 to 20 nM and an IC50 ([3]; PPI IC50 bin) of 2.5 to 20 nM. The Emax [3] was > 80%.

`C[C@@H](CO)Oc1cc2ncc(-c3cc(F)c(N)nc3F)n2cc1S(=O)(=O)C(C)(C)C` [Example 173, (S)-2-((3-(6-amino-2,5-difluoropyridin-3-yl)-6-(tert-butylsulfonyl)imidazo[1,2-a]pyridin-7-yl)oxy)propan-1-ol] was tested, and the IC50 [1] was > 1000 nM, the IC50 [2, 5] was 2.5 to 20 nM and the IC50 ([3]; PPI IC50 bin) was 2.5 to 20 nM. The Emax [3] was > 80%.

In the case of `C[C@@H](CO)COc1cc2ncc(-c3cc(F)c(N)nc3F)n2cc1S(=O)(=O)C(C)(C)C` [Example 175, (S)-3-((3-(6-amino-2,5-difluoropyridin-3-yl)-6-(tert-butylsulfonyl)imidazo[1,2-a]pyridin-7-yl)oxy)-2-methylpropan-1-ol], the IC50 [1] is reported as 50 to 250 nM, the IC50 [2, 4] is reported as 1 to 2.5 nM and the Emax [3] is reported as > 80%. The IC50 ([3]; read-out: PPI IC50 bin) was 1 to 2.5 nM.

In the case of `C[C@H](CO)COc1cc2ncc(-c3cc(F)c(N)nc3F)n2cc1S(=O)(=O)C(C)(C)C` [Example 176, (R)-3-((3-(6-amino-2,5-difluoropyridin-3-yl)-6-(tert-butylsulfonyl)imidazo[1,2-a]pyridin-7-yl)oxy)-2-methylpropan-1-ol], the IC50 [1] is reported as 50 to 250 nM, the IC50 [2, 4] is reported as 1 to 2.5 nM and the Emax [3] is reported as > 80%. For the same molecule, the IC50 ([3]; read-out: PPI IC50 bin) was 1 to 2.5 nM.

With `CC(C)(C)S(=O)(=O)c1cn2c(-c3cc(F)c(N)nc3F)cnc2cc1OCC1(O)CC1` [Example 177, 1-(((3-(6-amino-2,5-difluoropyridin-3-yl)-6-(tert-butylsulfonyl)imidazo[1,2-a]pyridin-7-yl)oxy)methyl)cyclopropan-1-ol] the IC50 [1] was 50 to 250 nM, the IC50 [2, 4] was 1 to 2.5 nM and the Emax [3] was > 80%. The IC50 ([3]; read-out: PPI IC50 bin) was 2.5 to 20 nM.

In the case of `COc1cc2ncc(-c3cc(NS(=O)(=O)C4(CO)CC4)c(OC)c(OC)c3)n2cc1S(=O)(=O)C(C)(C)C` [Example 178, N-(5-(6-(tert-butylsulfonyl)-7-methoxyimidazo[1,2-a]pyridin-3-yl)-2,3-dimethoxyphenyl)-1-(hydroxymethyl)cyclopropane-1-sulfonamide], the IC50 [1] is reported as < 50 nM, the IC50 [2, 4] is reported as < 1 nM and the Emax [3] is reported as > 80%. For the same molecule, the IC50 ([3]; read-out: PPI IC50 bin) was < 1 nM.

For `COc1cc2ncc(-c3cccc(NS(=O)(=O)C4(CO)CC4)c3)n2cc1S(=O)(=O)C(C)(C)C` [Example 179, N-(3-(6-(tert-butylsulfonyl)-7-methoxyimidazo[1,2-a]pyridin-3-yl)phenyl)-1-(hydroxymethyl)cyclopropane-1-sulfonamide], the IC50 [1] was > 1000 nM, the IC50 [2, 4] was 2.5 to 20 nM and the Emax [3] was 55 to 80%. The IC50 ([3]; read-out: PPI IC50 bin) was 2.5 to 20 nM.

In the case of `COc1cc2ncc(-c3cc(F)c(OC)c(NS(=O)(=O)C4(CO)CC4)c3)n2cc1S(=O)(=O)C(C)(C)C` [Example 180, N-(5-(6-(tert-butylsulfonyl)-7-methoxyimidazo[1,2-a]pyridin-3-yl)-3-fluoro-2-methoxyphenyl)-1-(hydroxymethyl)cyclopropane-1-sulfonamide], the IC50 [1] is reported as 50 to 250 nM, the IC50 [2, 4] is reported as 1 to 2.5 nM and the Emax [3] is reported as > 80%. For the same molecule, the IC50 ([3]; read-out: PPI IC50 bin) was < 1 nM.

For `COc1cn2ncc(-c3cc(F)c(OC)c(NS(=O)(=O)C4(CO)CC4)c3)c2cc1S(=O)(=O)C(C)(C)C` [Example 181, N-(5-(5-(tert-butylsulfonyl)-6-methoxypyrazolo[1,5-a]pyridin-3-yl)-3-fluoro-2-methoxyphenyl)-1-(hydroxymethyl)cyclopropane-1-sulfonamide], the IC50 [1] was < 50 nM, the IC50 [2, 4] was < 1 nM and the Emax [3] was > 80%. The IC50 ([3]; read-out: PPI IC50 bin) was < 1 nM.

For `COc1c(F)cc(-c2cnc3cc(OC[C@@H](C)CO)c(S(=O)(=O)C(C)(C)C)cn23)cc1NS(C)(=O)=O` [Example 182, (S)-N-(5-(6-(tert-butylsulfonyl)-7-(3-hydroxy-2-methylpropoxy)imidazo[1,2-a]pyridin-3-yl)-3-fluoro-2-methoxyphenyl)methanesulfonamide], the IC50 [1] was < 50 nM, the IC50 [2, 4] was < 1 nM and the Emax [3] was 55 to 80%. The IC50 ([3]; read-out: PPI IC50 bin) was < 1 nM.

With `COc1c(F)cc(-c2cnc3cc(OC[C@H](C)CO)c(S(=O)(=O)C(C)(C)C)cn23)cc1NS(C)(=O)=O` [Example 183, (R)-N-(5-(6-(tert-butylsulfonyl)-7-(3-hydroxy-2-methylpropoxy)imidazo[1,2-a]pyridin-3-yl)-3-fluoro-2-methoxyphenyl)methanesulfonamide] the IC50 [1] was < 50 nM, the IC50 [2, 4] was < 1 nM and the Emax [3] was 55 to 80%. The IC50 ([3]; read-out: PPI IC50 bin) was < 1 nM.

For `COc1cc2ncc(-c3cc(F)c(OC)c4[nH]c(CCO)nc34)n2cc1S(=O)(=O)C(C)(C)C` [Example 184, 2-(4-(6-(tert-butylsulfonyl)-7-methoxyimidazo[1,2-a]pyridin-3-yl)-6-fluoro-7-methoxy-1H-benzo[d]imidazol-2-yl)ethan-1-ol], the IC50 [1] was 250 to 1000 nM, the IC50 [2, 4] was 1 to 2.5 nM and the Emax [3] was 30 to 55%. It also gave an IC50 ([3]; read-out: PPI IC50 bin) of 1 to 2.5 nM.

With `COc1cc2ncc(-c3cc(F)c(OC)c4[nH]c(CN5CC(O)C5)nc34)n2cc1S(=O)(=O)C(C)(C)C` [Example 185, 1-((4-(6-(tert-butylsulfonyl)-7-methoxyimidazo[1,2-a]pyridin-3-yl)-6-fluoro-7-methoxy-1H-benzo[d]imidazol-2-yl)methyl)azetidin-3-ol] the IC50 [1] was 50 to 250 nM, the IC50 [2, 4] was 2.5 to 20 nM and the Emax [3] was 30 to 55%. It also gave an IC50 ([3]; read-out: PPI IC50 bin) of 1 to 2.5 nM.

For `CC(C)(C)S(=O)(=O)c1cn2c(-c3cc(Br)c(N)nc3F)cnc2cc1OCCO` [Example 186, 2-((3-(6-amino-5-bromo-2-fluoropyridin-3-yl)-6-(tert-butylsulfonyl)imidazo[1,2-a]pyridin-7-yl)oxy)ethan-1-ol], the IC50 [1] was 250 to 1000 nM, the IC50 [2, 4] was 2.5 to 20 nM and the Emax [3] was > 80%. The IC50 ([3]; read-out: PPI IC50 bin) was 2.5 to 20 nM.

`CC(C)(C)S(=O)(=O)c1cc2c(-c3cc(Cl)c(N)nc3F)cnn2cc1OCCOP(=O)(O)O` [Example 187, 2-((3-(6-amino-5-chloro-2-fluoropyridin-3-yl)-5-(tert-butylsulfonyl)pyrazolo[1,5-a]pyridin-6-yl)oxy)ethyl dihydrogen phosphate] was tested, and the IC50 [1] was 250 to 1000 nM, the IC50 [2, 4] was 2.5 to 20 nM and the Emax [3] was > 80%. It also gave an IC50 ([3]; read-out: PPI IC50 bin) of 2.5 to 20 nM.

For `CC(C)(C)S(=O)(=O)c1cc2c(-c3cc(F)c(N)nc3F)cnn2cc1OCCOP(=O)(O)O` [Example 188, 2-((3-(6-amino-2,5-difluoropyridin-3-yl)-5-(tert-butylsulfonyl)pyrazolo[1,5-a]pyridin-6-yl)oxy)ethyl dihydrogen phosphate], the IC50 [1] was > 1000 nM, the IC50 [2, 4] was > 20 nM and the Emax [3] was > 80%. For the same molecule, the IC50 ([3]; read-out: PPI IC50 bin) was > 20 nM.

With `CC(C)(C)C(C)(O)c1cn2c(-c3cc(F)c(N)nc3F)cnc2cc1OCCO` (stereo not drawn) [Example 189, 2-(3-(6-amino-2,5-difluoropyridin-3-yl)-7-(2-hydroxyethoxy)imidazo[1,2-a]pyridin-6-yl)-3,3-dimethylbutan-2-ol] the IC50 [1] was > 1000 nM, the IC50 [2, 4] was > 20 nM and the IC50 ([3]; read-out: PPI IC50 bin) was > 20 nM.

For `CCS(=O)(=O)Nc1cc(-c2cnc3cc(OC)c(C(=O)N4CCOCC4)cn23)cc(F)c1OC` [Example 190, N-(3-fluoro-2-methoxy-5-(7-methoxy-6-(morpholine-4-carbonyl)imidazo[1,2-a]pyridin-3-yl)phenyl) ethanesulfonamide], the IC50 [1] was > 1000 nM, the IC50 [2, 4] was > 20 nM and the Emax [3] was 55 to 80%. For the same molecule, the IC50 ([3]; read-out: PPI IC50 bin) was > 20 nM.

With `CCCS(=O)(=O)Nc1cc(-c2cnc3cc(OC)c(C(=O)N4CCNCC4)cn23)cc(F)c1OC` [Example 191, N-(3-fluoro-2-methoxy-5-(7-methoxy-6-(piperazine-1-carbonyl)imidazo[1,2-a]pyridin-3-yl)phenyl)propane-1-sulfonamide] the IC50 [1] was > 1000 nM, the IC50 [2, 4] was 2.5 to 20 nM and the Emax [3] was > 80%. For the same molecule, the IC50 ([3]; read-out: PPI IC50 bin) was 2.5 to 20 nM.

In the case of `CCS(=O)(=O)Nc1cc(-c2cnc3cc(OC)c(C(=O)N4CCC(O)CC4)cn23)cc(F)c1OC` [Example 192, N-(3-fluoro-5-(6-(4-hydroxypiperidine-1-carbonyl)-7-methoxyimidazo[1,2-a]pyridin-3-yl)-2-methoxyphenyl) ethanesulfonamide], the IC50 [1] is reported as > 1000 nM, the IC50 [2, 4] is reported as 2.5 to 20 nM and the Emax [3] is reported as > 80%. For the same molecule, the IC50 ([3]; read-out: PPI IC50 bin) was 2.5 to 20 nM.

`C[C@@H](CO)COc1cn2ncc(-c3cc(F)c(N)nc3F)c2cc1S(=O)(=O)C(C)(C)C` [Example 194, (S)-3-((3-(6-amino-2,5-difluoropyridin-3-yl)-5-(tert-butylsulfonyl)pyrazolo [1,5-a]pyridin-6-yl)oxy)-2-methylpropan-1-ol] was tested, and the IC50 [1] was 50 to 250 nM, the IC50 [2, 4] was < 1 nM and the Emax [3] was > 80%. The IC50 ([3]; read-out: PPI IC50 bin) was 1 to 2.5 nM.
